From patent publication US20120225061A1, “TETRASUBSTITUTED CYCLOHEXYL COMPOUNDS AS KINASE INHIBITORS” (priority 2011, published 2012)

What was measured:
[1] = target: Pim1 kinase (Homo sapiens, UniProt P11309); assay: KinaseGlo Pim1 ATP depletion assay; format: biochemical; conditions: Table 4, 2.5 nM PIM1, 20 μM ATP, 40 μM BAD peptide
Protocol: The activity of PIM1 is measured using a luciferase-luciferin based ATP detection reagent to quantify ATP depletion resulting from kinase-catalyzed phosphoryl transfer to a peptide substrate. Compounds to be tested are dissolved in 100% DMSO and directly distributed into white 384-well plates at 0.5 μl per well. […] After 15 minutes, 10 μl of 40 μM ATP in assay buffer is added. […] The reaction is performed until approximately 50% of the ATP is depleted, then stopped with the addition of 20 μl KinaseGlo Plus (Promega Corporation) solution. The stopped reaction is incubated for 10 minutes and the remaining ATP detected via luminescence on the Victor2 (Perkin Elmer).

[2] = target: Pim2 kinase (Homo sapiens, UniProt Q9P1W9); assay: KinaseGlo Pim2 ATP depletion assay; format: biochemical; conditions: Table 4, 5 nM PIM2, 4 μM ATP, 10 μM BAD peptide
Protocol: (§1) The activity of PIM2 is measured using a luciferase-luciferin based ATP detection reagent to quantify ATP depletion resulting from kinase-catalyzed phosphoryl transfer to a peptide substrate. Compounds to be tested are dissolved in 100% DMSO and directly distributed into white 384-well plates at 0.5 μl per well. […] After 15 minutes, 10 μl of 8 μM ATP in assay buffer is added. Final assay concentrations are 5 nM PIM2, 4 μM ATP, 10 μM BAD peptide and 2.5% DMSO. The reaction is performed until approximately 50% of the ATP is depleted, then stopped with the addition of 20 μl KinaseGlo Plus (Promega Corporation) solution. The stopped reaction is incubated for 10 minutes and the remaining ATP detected via luminescence on the Victor2 (Perkin Elmer).

[3] = target: Pim3 kinase (Homo sapiens, UniProt Q86V86); assay: KinaseGlo Pim3 ATP depletion assay; format: biochemical; conditions: Table 4, 40 μM ATP, 100 μM BAD peptide
Protocol: as §1, with “of PIM3” for “of PIM2”, “of 80” for “of 8”, “nM PIM1, 40” for “nM PIM2, 4”, “ATP, 100” for “ATP, 10”, “stopped by” for “stopped with”

[4] = test system: KMS11 (human myeloma cell line); assay: Cell proliferation assay (CellTiter-Glo) in KMS11 cells; format: cell-based; conditions: KMS-11, 72 h, Table 4, 3 days, read-out: KMS11-luc EC50
Outline: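 KMS11 cells at 2000 per well in IMDM/10% FBS were exposed to compound for 3 days. Viability was read by CellTiter-Glo luminescence.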

Sequence of Pim1 kinase (P11309 whole entry): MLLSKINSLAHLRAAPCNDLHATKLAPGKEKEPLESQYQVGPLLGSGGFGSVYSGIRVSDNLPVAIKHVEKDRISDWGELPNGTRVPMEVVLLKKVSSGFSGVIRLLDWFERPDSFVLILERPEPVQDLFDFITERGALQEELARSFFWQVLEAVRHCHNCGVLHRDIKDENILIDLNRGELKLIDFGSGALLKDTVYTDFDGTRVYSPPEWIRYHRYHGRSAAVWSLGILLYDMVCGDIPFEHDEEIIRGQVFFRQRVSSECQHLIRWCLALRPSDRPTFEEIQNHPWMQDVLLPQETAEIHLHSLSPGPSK
Sequence of Pim2 kinase (Q9P1W9 whole entry): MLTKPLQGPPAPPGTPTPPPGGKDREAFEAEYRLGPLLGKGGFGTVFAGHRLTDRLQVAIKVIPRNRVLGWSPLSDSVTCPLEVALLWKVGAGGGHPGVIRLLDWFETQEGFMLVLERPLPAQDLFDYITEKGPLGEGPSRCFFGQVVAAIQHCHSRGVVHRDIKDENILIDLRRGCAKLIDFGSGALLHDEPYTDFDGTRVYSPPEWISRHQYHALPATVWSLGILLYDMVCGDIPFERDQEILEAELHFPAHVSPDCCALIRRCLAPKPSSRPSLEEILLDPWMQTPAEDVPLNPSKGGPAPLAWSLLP

IC50 [1] | IC50 [2] | IC50 [3] | EC50 [4] | Compound
0.6 nM | 3.5 nM | 1.5 nM | 4.78 µM | COc1cc(F)c(-c2cccc(C(=O)Nc3cnccc3[C@H]3C[C@@H](O)[C@](C)(O)[C@@H](C)C3)n2)c(F)c1 [Example 50, 6-(2,6-difluoro-4-methoxyphenyl)-N-(4-((1R,3R,4R,5S)-3,4-dihydroxy-4,5-dimethylcyclohexyl)pyridin-3-yl) picolinamide]
2 nM | 13.5 nM | 3.6 nM | 9.74 µM | C[C@H]1C[C@@H](c2ccncc2NC(=O)c2nc(-c3nccs3)ccc2N)C[C@@H](O)[C@]1(C)O [Example 52, 3-amino-N-(4-((1R,3R,4R,5S)-3,4-dihydroxy-4,5-dimethylcyclohexyl)pyridin-3-yl)-6-(thiazol-2-yl) picolinamide]
3.3 nM | 67.9 nM | 12.1 nM | ≥ 10 µM | C[C@H]1C[C@@H](c2ccncc2NC(=O)c2ccc(F)c(-c3ccc(C#N)cc3F)n2)C[C@@H](O)[C@]1(C)O [Example 54, 6-(4-cyano-2-fluorophenyl)-N-(4-((1R,3R,4R,5S)-3,4-dihydroxy-4,5-dimethylcyclohexyl)pyridin-3-yl)-5-fluoropicolinamide]
12.7 nM | 740 nM | 220 nM | ≥ 10 µM | C[C@@H]1C[C@H](c2ccncc2NC(=O)c2ccc(F)c(-c3c(F)ccc(N)c3F)n2)C[C@H](O)[C@@]1(C)O [Example 55, 6-(3-amino-2,6-difluorophenyl)-N-(4-((1S,3S,4S,5R)-3,4-dihydroxy-4,5-dimethylcyclohexyl)pyridin-3-yl)-5-fluoropicolinamide]
0.4 nM | 5.3 nM | 2.9 nM | 7.96 µM | C[C@H]1C[C@@H](c2ccncc2NC(=O)c2ccc(F)c(-c3c(F)ccc(N)c3F)n2)C[C@@H](O)[C@]1(C)O [Example 56, 6-(3-amino-2,6-difluorophenyl)-N-(4-((1R,3R,4R,5S)-3,4-dihydroxy-4,5-dimethylcyclohexyl)pyridin-3-yl)-5-fluoropicolinamide]
15.1 nM | 227 nM | 102 nM | 6.62 µM | C[C@@H]1C[C@H](c2ccncc2NC(=O)c2cccc(-c3c(F)cccc3F)n2)C[C@H](O)[C@@]1(C)O [Example 57, 6-(2,6-difluorophenyl)-N-(4-((1S,3S,4S,5R)-3,4-dihydroxy-4,5-dimethylcyclohexyl)pyridin-3-yl) picolinamide]
0.4 nM | 3.4 nM | 2.6 nM | 6.06 µM | C[C@H]1C[C@@H](c2ccncc2NC(=O)c2cccc(-c3c(F)cccc3F)n2)C[C@@H](O)[C@]1(C)O [Example 58, 6-(2,6-difluorophenyl)-N-(4-((1R,3R,4R,5S)-3,4-dihydroxy-4,5-dimethylcyclohexyl)pyridin-3-yl) picolinamide]
19.3 nM | 1710 nM | 329 nM | ≥ 10 µM | C[C@@H]1C[C@H](c2ccncc2NC(=O)c2ccc(F)c(-c3c(F)cccc3F)n2)C[C@H](O)[C@]1(O)CO [Example 60, 6-(2,6-difluorophenyl)-N-(4-((1S,3S,4R,5R)-3,4-dihydroxy-4-(hydroxymethyl)-5-methylcyclohexyl)pyridin-3-yl)-5-fluoropicolinamide]
1 nM | 4.6 nM | 1.9 nM | 5.75 µM | C[C@H]1C[C@@H](c2ccncc2NC(=O)c2nc(-c3nc(Cl)ccc3F)ccc2N)C[C@@H](O)[C@]1(C)O [Example 136, 5-amino-6′-chloro-N-(4-((1R,3R,4R,5S)-3,4-dihydroxy-4,5-dimethylcyclohexyl)pyridin-3-yl)-3′-fluoro-2,2′-bipyridine-6-carboxamide]
1.5 nM | 5.4 nM | 2.3 nM | 8.58 µM | COC(=O)c1ccc(F)c(-c2ccc(N)c(C(=O)Nc3cnccc3[C@H]3C[C@@H](O)[C@](C)(O)[C@@H](C)C3)n2)n1 [Example 137, methyl 5′-amino-6′-(4-((1R,3R,4R,5S)-3,4-dihydroxy-4,5-dimethylcyclohexyl)pyridin-3-ylcarbamoyl)-3-fluoro-2,2′-bipyridine-6-carboxylate]
1.7 nM | 12.9 nM | 2.6 nM | ≥ 10 µM | Cc1ccc(F)c(-c2ccc(N)c(C(=O)Nc3cnccc3[C@H]3C[C@@H](O)[C@](C)(O)[C@@H](C)C3)n2)n1 [Example 138, 5-amino-N-(4-((1R,3R,4R,5S)-3,4-dihydroxy-4,5-dimethylcyclohexyl)pyridin-3-yl)-3′-fluoro-6′-methyl-2,2′-bipyridine-6-carboxamide]
7.5 nM | 130 nM | 15.2 nM | ≥ 10 µM | Cc1nn(C)cc1-c1ccc(N)c(C(=O)Nc2cnccc2[C@H]2C[C@@H](O)[C@](C)(O)[C@@H](C)C2)n1 [Example 140, 3-amino-N-(4-((1R,3R,4R,5S)-3,4-dihydroxy-4,5-dimethylcyclohexyl)pyridin-3-yl)-6-(1,3-dimethyl-1H-pyrazol-4-yl)picolinamide]
1.1 nM | 2.1 nM | 2.2 nM | 4.87 µM | C[C@H]1C[C@@H](c2ccncc2NC(=O)c2nc(-c3c(F)cncc3F)ccc2N)C[C@@H](O)[C@]1(C)O [Example 141, 5-amino-N-(4-((1R,3R,4R,5S)-3,4-dihydroxy-4,5-dimethylcyclohexyl)pyridin-3-yl)-3′,5′-difluoro-2,4′-bipyridine-6-carboxamide]
152 nM | 769 nM | 245 nM | ≥ 10 µM | C[C@H]1C[C@@H](c2ccncc2NC(=O)c2nc(-c3ccnnc3)ccc2N)C[C@@H](O)[C@]1(C)O [Example 142, 3-amino-N-(4-((1R,3R,4R,5S)-3,4-dihydroxy-4,5-dimethylcyclohexyl)pyridin-3-yl)-6-(pyridazin-4-yl)picolinamide]
8.8 nM | 120 nM | 8.7 nM | 6.69 µM | Cc1c(-c2ccc(N)c(C(=O)Nc3cnccc3[C@H]3C[C@@H](O)[C@](C)(O)[C@@H](C)C3)n2)cnn1C [Example 143, 3-amino-N-(4-((1R,3R,4R,5S)-3,4-dihydroxy-4,5-dimethylcyclohexyl)pyridin-3-yl)-6-(1,5-dimethyl-1H-pyrazol-4-yl)picolinamide]
0.7 nM | 7.7 nM | 2.3 nM | 4.22 µM | C[C@H]1C[C@@H](c2ccncc2NC(=O)c2nc(-c3ncccc3Cl)ccc2N)C[C@@H](O)[C@]1(C)O [Example 144, 5-amino-3′-chloro-N-(4-((1R,3R,4R,5S)-3,4-dihydroxy-4,5-dimethylcyclohexyl)pyridin-3-yl)-2,2′-bipyridine-6-carboxamide]
